Columns and labels:
[1] = tested on: mononuclear cells (MNCs) from healthy donors; assay: Viability of primary mononuclear cells (CellTiter Glo); type: cell-based, human; conditions: primary MNC from six healthy donors, 48 h
Experimental: Afterwards, the cells were washed with DPBS and a fresh portion of RPMI 1640 medium containing 5% FBS, 1% L-glutamine and 1% penicillin/streptomycin (1 mL) was added.
The fluorescence images were taken with a Zeiss Axio Vert.A1 fluorescence microscope […]
For SBLF9 the same procedure was applied except that Ham's F-12K (Kaighn's)-Medium supplemented with 15 % FBS, 2 % non-essential amino acid mix, and 1 % penicillin/streptomycin was used for cell seeding and incubation with the prodrug or the carrier. A cell density of 40 cells/µL was used.
Determination of viability of primary cancer (CLL) and normal (MNC) cells in the […]
Clinical samples from chronic lymphocytic leukemia (CLL) patients (N=6, CLL cells) and healthy donors (N=6; peripheral blood mononuclear cells, MNCs) were collected at the University Hospital Heidelberg, Germany. Informed consent was obtained in accordance with the Declaration of Helsinki. Sample collection and analysis was approved by the ethics committee of the University of Heidelberg (S-254/2016). Blood was separated by a Ficoll gradient (GE Healthcarey), and cells were cryopreserved. […]
4x10^4 cells per well. […] Cell viability was assessed by quantification of ATP (CellTiter Glo®, Promega) 48 hours after drug application.
Luminescence was measured on a Tecan Infinite F200 Microplate Reader. Viability was calculated as % of solvent (DMSO) treated control. […]

[2] = tested on: A2780 cells; assay: Generation of nitric oxide (DAF-FM diacetate), A2780; type: cell-based, human; conditions: 2 h
Experimental: with CO2 (5%) at 37 °C for 2 h. Next, the cells were detached from the culture dish using trypsin/EDTA (0.025%/0.01%, v/v, 200 µL). The cells were re-suspended in RPMI 1640 medium containing 5% FBS, 1% L-glutamine and 1% penicillin/streptomycin (200 µL).
Finally, the fluorescence of live cells (λex = 488 nm, λem = 530 nm) in the suspensions was determined by using flow cytometry (Figure 4C).
Figure S61. Representative flow cytometric histograms used for setting up Figure 4C.
Generation of nitric oxide in A2780 cells
A2780 cells were seeded into 96 well culture plates at the same cell concentration and in the same medium as applied for the assay for monitoring mROS described above. On the day of the experiment, the cells were washed twice with DPBS buffer and the medium was replaced with HBSS (100 μL). […]
The cells were re-suspended in RPMI 1640 medium containing 5% FBS, 1% L-glutamine and 1% penicillin/streptomycin (100 µL). Finally, the fluorescence of live cells (λex = 488 nm, λem = 530 nm) in the suspensions was determined by using flow cytometry (Figure […]
Figure S62. Fluorescence of DAF-FM diacetate-loaded A2780 cells treated either with 2c or the carrier. *: p<0.05, Student’s t test. […]

For `CC1(C)OB(c2ccc(COC(=O)N(Cc3cn(Cc4ccc(Cn5cc(Cc6ccccc6)nn5)cc4)nn3)[c-]3cccc3)cc2)OC1(C)C.[Fe+2].c1cc[cH-]c1` [2c], the IC50 [1] was 12 ± 3 µM and the “level of NO vs carrier” value [2] was “higher than that in A2780 cells treated with DMSO (carrier) only”.
